In patent US8399417B2, “Food” (Ajinomoto Co., Inc., priority 2007, dated 2013):
Starred links: 1 amine or outer side, 2 acyl side, 3 side chain; linkers in the order of their positions; H or OH if unused. Non-standard residues stand in square brackets, D forms with d. No end group written: not given here. γGlu = O=C(O)[C@H](CCC(=O)[*:2])N[*:1]; Abu = CC[C@H](N)C(=O)O

Assays:
Assay type in all cases: in vivo, human
[1] = Kokumi-imparting activity intensity, quantitative sensory evaluation test; set-up: key: *: Unmeasurable: kokumi-imparting activity is too strong to measure by sensory evaluation
Method: The quantitative sensory evaluation test was performed as follows. […] It should be noted that a sample, which became acidic after the sample had been dissolved, was adjusted with NaOH to pH 6.8 to 7.2 before use. […] The test was performed with n=3 based on the following sensory evaluation scores: control (0 point) and glutathione addition (3 points).
The quantitative sensory evaluation test was performed as follows. […] It should be noted that a sample, which became acidic after the sample had been dissolved, was adjusted with NaOH to pH 6.8 to 7.2 before use. The test was performed with n=5 based on the following sensory evaluation scores: control (0 point) and glutathione addition (3 points).
The quantitative sensory evaluation test was performed as follows. […] It should be noted that a sample, which became acidic after the sample had been dissolved, was adjusted with NaOH to pH 6.8 to 7.2 before use. The test was performed with n=12 based on the following sensory evaluation scores: control (0 point) and glutathione addition (3 points).

[2] = Fat-like richness and smoothness imparted to low-fat milk, quantitative sensory evaluation test; details: for Fat-like richness / Smoothness: n=12, control 0, strong 3, very strong 5 points
Method: (§1) The quantitative sensory evaluation test was performed as follows. Each of γ-Glu-Cys-Gly (glutathione), γ-Glu-Val-Gly, and γ-Glu-Abu-Gly was mixed with commercially-available low-fat milk (non-fat milk solids content: 8.6% or more, milk fat content: 1.5%) at a concentration of 0.00001 to 1 g/dl, and the intensity of imparting fat-like richness was measured.
It should be noted that each peptide was dissolved in low-fat milk, and then a sample, the pH of which was lowered, was adjusted with NaOH so that the pH might be ±0.2 with respect to the pH of the low-fat milk free of peptide.
The sensory score for fat-like richness and smoothness was defined as follows: control (free of peptide): 0 point; strong: 3 points; and very strong: 5 points. Then, the test was performed with n=12. […] As clear from Table 6, it was confirmed that the peptide imparted fat-like richness and smoothness to low-fat milk at a lower concentration than glutathione.
as §1, with “γ-Glu-Val-Gly” for “γ-Glu-Cys-Gly (glutathione), γ-Glu-Val-Gly,”, “cinacalcet” for “γ-Glu-Abu-Gly”
It should be noted that each sample was dissolved in low-fat milk, and then a sample, the pH of which was lowered, was adjusted with NaOH so that the pH might be ±0.2 with respect to the pH of the low-fat milk free of a sample.
The sensory score for fat-like richness and smoothness was defined as follows: control (free of sample): 0 point; strong: 3 points; and very strong: 5 points. Then, the test was performed with n=12.

[3] = Fat-like richness and smoothness imparted to low-calorie mayonnaise, quantitative sensory evaluation test; details: for Fat-like richness / Smoothness: control 0, strong 3, very strong 5 points
Method: In the same manner as that in Example 1 except that commercially-available low-calorie mayonnaise (having a fat content reduced by 50% compared with a normal product) was used instead of low-fat milk, each peptide was measured for its fat-like richness-imparting intensity.
In the same manner as that in Example 2, each sample was measured for its intensity of imparting fat-like richness.

[4] = 0.1 g/dl, n=5, control 0, glutathione 3 points, Table 4
[5] = 0.1 g/dl, n=12, control 0, glutathione 3 points, Table 5
[6] = 0.01 g/dl in low-fat milk (milk fat 1.5%), Table 6
[7] = 0.01 g/dl in low-fat milk, Table 6
[8] = 0.01 g/dl in low-calorie mayonnaise (fat reduced by 50%), Table 7
[9] = 0.01 g/dl in low-calorie mayonnaise, Table 7
[10] = 0.01 g/dl, n=5, control 0, glutathione 3 points, Table 4
[11] = 0.01 g/dl, n=12, control 0, glutathione 3 points, Table 5
[12] = 0.0001 g/dl in low-fat milk, Table 6
[13] = 0.001 g/dl in low-fat milk, Table 6
[14] = 0.001 g/dl in low-fat milk, Table 8
[15] = 0.0001 g/dl in low-calorie mayonnaise, Table 7
[16] = 0.001 g/dl in low-calorie mayonnaise, Table 7
[17] = 0.001 g/dl in low-calorie mayonnaise, Table 9

Molecule: N[C@@H](CCC(=O)N[C@@H](CS)C(=O)NCC(=O)O)C(=O)O [γ-Glu-Cys-Gly, reference compound]
- Taste profile ([1]; 0.1 g/dl, n=3, Table 3): Thickness, growth, and continuity
- Kokumi intensity, Aftertaste ([1]; 0.1 g/dl, n=3, control 0, glutathione 3 points, Table 3): 3.0 points
- Kokumi intensity, Aftertaste [1, 4]: 3.0 points
- Kokumi intensity, Initial and middle taste [1, 4]: 3.0 points
- Kokumi intensity, Aftertaste [1, 5]: 3.0 points
- Kokumi intensity, Initial and middle taste [1, 5]: 3.0 points
- Kokumi intensity, Initial and middle taste ([1]; 0.1 g/dl, sodium glutamate, inosine monophosphate, sodium chloride solution, n=3, control 0, glutathione 3 points, Table 3): 3.0 points
- Fat-like richness [2, 6]: 2.5 points
- Taste profile [2, 7]: Growth exists in the whole
- Smoothness [2, 7]: 3.0 points
- Fat-like richness [3, 8]: 3.5 points
- Taste profile [3, 9]: Fat-like richness with sweet
- Smoothness [3, 9]: 3.0 points

Molecule: [γGlu]-Val-Gly
- Kokumi intensity, Aftertaste [1, 10]: 3.0 points
- Kokumi intensity, Initial and middle taste [1, 10]: 3.0 points
- Kokumi intensity, Aftertaste [1, 11]: 3.0 points
- Kokumi intensity, Initial and middle taste [1, 11]: 3.0 points
- Kokumi intensity, Aftertaste ([1]; 0.1 g/dl, n=5, Table 4): *
- Kokumi intensity, Initial and middle taste ([1]; 0.1 g/dl, n=5, Table 4): *
- Taste profile ([1]; 0.1 g/dl, n=5, Table 4): *
- Taste profile [2, 12]: Taste is enhanced in middle
- Fat-like richness [2, 12]: 2.5 points
- Smoothness [2, 12]: 2.3 points
- Taste profile [2, 13]: Taste is enhanced in middle
- Taste profile [2, 14]: Taste is enhanced in middle taste
- Fat-like richness [2, 13]: 4.5 points
- Smoothness [2, 13]: 4.0 points
- Fat-like richness [2, 14]: 4.5 points
- Smoothness [2, 14]: 4.0 points
- Taste profile [3, 15]: Taste is enhanced in middle
- Fat-like richness [3, 15]: 3.0 points
- Smoothness [3, 15]: 3.0 points
- Taste profile [3, 16]: Taste is enhanced in middle
- Taste profile [3, 17]: Taste is enhanced in middle
- Fat-like richness [3, 16]: 4.8 points
- Smoothness [3, 16]: 4.5 points
- Fat-like richness [3, 17]: 4.8 points
- Smoothness [3, 17]: 4.5 points

Molecule: [γGlu]-[Abu]-Gly
- Kokumi intensity, Aftertaste [1, 11]: 2.0 points
- Kokumi intensity, Initial and middle taste [1, 11]: 3.0 points
- Fat-like richness [2, 13]: 2.3 points
- Smoothness [2, 13]: 3.0 points
- Fat-like richness [2, 6]: 4.3 points
- Smoothness [2, 7]: 4.0 points
- Taste profile [3, 16]: Fat-like richness with sweet
- Fat-like richness [3, 16]: 3.2 points
- Smoothness [3, 16]: 3.0 points
- Fat-like richness [3, 8]: 4.7 points
- Taste profile [3, 9]: Fat-like richness with sweet
- Smoothness [3, 9]: 4.3 points
